Data published in patent publication US20250346571A1, “BICYCLIC DERIVATIVE PARP INHIBITOR AND USE THEREOF” (XIZANG HAISCO PHARMACEUTICAL CO., LTD., priority 2022, published 2025).

Assay: Pharmacokinetic test in mice
Format: in vivo, Balb/c mice
Protocol: 4.1 Experimental animal: male Balb/c mice, 20-25 g, 12 mice/compound, purchased from Chengdu Ddossy Experimental Animals Co., Ltd.
4.2 Experimental design: on the day of the test, 60 Balb/c mice were randomly grouped according to their body weights. The animals were fasted with water available for 12 to 14 h one day before the administration and were fed 4 h after the administration.
Before and after the administration, 0.06 mL ofblood was taken from the orbit of the animals under isoflurane anesthesia and placed in an EDTAK2 centrifuge tube. The blood was centrifuged at 5000 rpm and 4° C. for 10 min to collect plasma. The blood collection time points for the intravenous administration group and intragastric administration group were 0, 5 min, 15 min, 30 min, 1 h, 2 h, 4 h, 6 h, 8 h, and 24 h. The brain tissues were collected at 30 min, 2 h and 24 h after administration of compounds 12, 15 and 18, respectively. The brain tissues were collected 24 hours after administration of compounds 2 and 5, rinsed with cold physiological saline to remove the residual blood on the surface, drained out and then homogenized. Before analysis and detection, all samples were stored at −80° C. The samples were analyzed quantitatively by LC-MS/MS.

[1] = male, Balb/c, mouse, iv, mice, i.v. 2.5 mg/kg, plasma

pharmacokinetic characteristics in mice (conclusion in words): good pharmacokinetic characteristics | AUC(0-t) [1]: 19000 ± 3590 ng·h/mL | clearance [1]: 2.16 ± 0.31 mL/min/kg | Vd (male, Balb/c, mouse, iv, mice, i.v. 2.5 mg/kg, plasma, read-out: Vdss): 0.42 ± 0.017 L/kg | bioavailability (male, Balb/c, mouse, plasma, po, mice, i.g. 10 mg/kg): ≥ 98% | AUC(0-t) (male, Balb/c, mouse, po, mice, i.g. 10 mg/kg, plasma): 80800 ng·h/mL
Structure (SMILES): O=C(NC1CC1)c1ccc(N2CCN(Cc3ccc4nc(C(F)F)c(=O)[nH]c4c3F)CC2)c(F)n1 [Compound 12, N-cyclopropyl-5-(4-((2-(difluoromethyl)-5-fluoro-3-oxo-3,4-dihydroquinoxalin-6-yl)methyl)piperazin-1-yl)-6-fluoropicolinamide]
